Results from patent publication US12728119B2, “Pharmaceutical composition for preventing or treating cancer comprising 3-ketoacyl CoA thiolase inhibitor and carnitine acylcarnitine carrier inhibitor” (NATIONAL CANCER CENTER, priority 2020, dated 2026).
“And” between values parts separate entries of the source, which are not always exact repeats. Identical values can stand only once.

Key:
Assay in all cases: SRB analysis 2
Format in all cases: cell-based
[1] = tested on: AsPC-1 pancreatic cancer cells; conditions: 48 hours
Procedure: (§1) The SRB assay was performed as follows: each cell line (100 μl) was seeded into 96-well microtiter plates at densities ranging from 5,000 to 20,000 cells/well depending on the doubling time of each cell line. After cell seeding, microtiter plates were incubated for 24 h before addition of experimental drug. Drugs were prepared at the indicated concentrations and 100 μl was added to each well; The plates were then incubated in a CO2 incubator. Then, cold TCA was added to terminate the assay. Cells were fixed in situ by gentle addition of 50 μl of cold 50% (w/v) TCA (final concentration: 10% TCA) and incubated at 4° C. for 60 min. The supernatant was discarded and the plate was washed 5 times with tap water and then air dried. A solution (100 μl) of 0.4% (w/v) SRB (Sulforhodamine B) in 1% acetic acid was added to each well, and the plate was left at room temperature for 10 minutes. After staining, the plates were air dried after washing 5 times with 1% acetic acid to remove unbound dye. The bound dye was then solubilized with 10 mM trizma base and the absorbance was recorded at 515 nm using an automated plate reader.

[2] = tested on: BxPC-3 pancreatic cancer cells; conditions: 48 hours
Procedure: as §1

[3] = tested on: MIA PaCa2 pancreatic cancer cells; conditions: MIA PaCa-2, 48 hours
Procedure: as §1

[4] = tested on: Panc-1 pancreatic cancer cells; conditions: 48 hours
Procedure: as §1

[5] = tested on: SNU-213 pancreatic cancer cells; conditions: SNU213, 48 hours
Procedure: as §1

[6] = tested on: SNU-324 pancreatic cancer cells; conditions: SNU324, 48 hours
Procedure: as §1

[7] = tested on: SU.86.86 pancreatic cancer cells; conditions: 48 hours
Procedure: as §1

[8] = tested on: SW1990 pancreatic cancer cells; conditions: 48 hours
Procedure: as §1

Cc1c(OCC(F)(F)F)ccnc1C[S+]([O-])c1nc2ccccc2[nH]1 (centres unmarked) [KN511, lansoprazole]
degree of cell growth based on the control (100%) ([1]; KN511 50 μM): 44.46% and 38.02% | degree of cell growth based on the control (100%) ([1]; KN511 100 μM): 20.33% and 14.98% | degree of cell growth based on the control (100%) ([2]; KN511 50 μM): 30.51% and 41.39% | degree of cell growth based on the control (100%) ([2]; KN511 100 μM): −4.87% and −1.66% | degree of cell growth based on the control (100%) ([3]; KN511 50 μM): 72.22% and 68.24% | degree of cell growth based on the control (100%) ([3]; KN511 100 μM): 24.61% and 16.12% | degree of cell growth based on the control (100%) ([4]; KN511 50 μM): 65.77% and 39.30% | degree of cell growth based on the control (100%) ([5]; KN511 50 μM): 46.12% and 49.55% | degree of cell growth based on the control (100%) ([6]; KN511 50 μM): 16.15% and 17.09% | degree of cell growth based on the control (100%) ([6]; KN511 100 μM): 4.93% and 8.06% | degree of cell growth based on the control (100%) ([7]; KN511 50 μM): 44.93% and 31.47% | degree of cell growth based on the control (100%) ([8]; KN511 50 μM): 2.62% and 7.49% | degree of cell growth based on the control (100%) ([8]; KN511 100 μM): −25.25%

COc1ccnc(C[S+]([O-])c2nc3ccc(OC(F)F)cc3[nH]2)c1OC (centres unmarked) [KN512, pantoprazole]
degree of cell growth based on the control (100%) ([1]; KN512 100 μM): 64.75% and 71.27% | degree of cell growth based on the control (100%) ([1]; KN512 200 μM): 23.37% and 25.43% | degree of cell growth based on the control (100%) ([2]; KN512 100 μM): 34.14% and 49.52% | degree of cell growth based on the control (100%) ([2]; KN512 200 μM): −10.63% and −6.75% | degree of cell growth based on the control (100%) ([3]; KN512 100 μM): 62.60% and 66.74% | degree of cell growth based on the control (100%) ([3]; KN512 200 μM): 5.82% and 1.98% | degree of cell growth based on the control (100%) ([4]; KN512 100 μM): 54.90% and 57.01% | degree of cell growth based on the control (100%) ([4]; KN512 200 μM): 6.03% and 12.81% | degree of cell growth based on the control (100%) ([5]; KN512 100 μM): 66.09% and 59.49% | degree of cell growth based on the control (100%) ([5]; KN512 200 μM): 36.60% and 51.18% | degree of cell growth based on the control (100%) ([6]; KN512 100 μM): 61.20% and 74.13% | degree of cell growth based on the control (100%) ([6]; KN512 200 μM): 23.82% and 21.77% | degree of cell growth based on the control (100%) ([7]; KN512 100 μM): 59.26% and 70.59% | degree of cell growth based on the control (100%) ([7]; KN512 200 μM): 19.69% and 26.47% | degree of cell growth based on the control (100%) ([8]; KN512 100 μM): 70.30% and 73.00% | degree of cell growth based on the control (100%) ([8]; KN512 200 μM): 25.58% and 41.93%
